These results are taken from ChEMBL document CHEMBL1157914, “5,5'-substituted indirubin-3'-oxime derivatives as potent cyclin-dependent kinase inhibitors with anticancer activity” (J Med Chem, 2010).

Calls of active or inactive are those of the source. The rule behind the calls is not given here.

In experiment [1] the target is Cyclin-dependent kinase 2/cyclin E1 (Homo sapiens, UniProt P24941). In words: Inhibition of CDK2/cyclin E. In kind it is protein-complex assay.
Experiment [2] deals with Cyclin-dependent kinase 2/cyclin E1 (Homo sapiens) (UniProt P24864+P24941). In words: Inhibition of CDK2/cyclin E as percent residual activity. Details: Residual activity / inhibition: concentration or dose not given beside the values. The experiment is classed as protein-complex assay.
Experiment [3] is described as follows: Selectivity ratio for CDK2/cyclinE over CDK1/cyclin B.
The test system of another experiment is A549. Description: Antiproliferative activity against human A549 cells after 3 days by SRB assay. The experiment is classed as functional, cell-based. To be noted: A549, 72 h.
The next experiment deals with HT-1080. In words: Antiproliferative activity against human HT1080 cells after 3 days by SRB assay. The experiment is classed as functional, cell-based. To be noted: HT-1080, 72 h. For orientation: The SRB assay estimates cell density from bound dye.
A short description of experiment [4]: Antiproliferative activity against human […] cells after 3 days by SRB assay. In kind it is functional, cell-based. To be noted: 72 h.
The subject of the next experiment is K562. Description: Antiproliferative activity against human K562 cells after 3 days by SRB assay. To be noted: K562, 72 h. In kind it is functional, cell-based.
For a further experiment, the system named is SNU-638. Description: Antiproliferative activity against human SNU638 cells after 3 days by SRB assay. To be noted: SNU-638, 72 h. In kind it is functional, cell-based.
The next experiment concerns KB. Description: Antiproliferative activity against human KB cells after 3 days by SRB assay. The experiment is classed as functional, cell-based. Conditions: 72 h.
Another experiment concerns MCF7. Description: Antiproliferative activity against human MCF7 cells after 3 days by SRB assay. Conditions: MCF7, 72 h. In kind it is functional, cell-based.
In experiment [5] the target is Cyclin-dependent kinase 1/cyclin B1 (Homo sapiens) (UniProt P06493+P14635). In words: Inhibition of CDK1/cyclin B at 1 uM after 40 mins by lequid scintillation counting. In kind it is protein-complex assay.
Chain of Cyclin-dependent kinase 1/cyclin B1 (Homo sapiens) (P06493 whole entry, looked up): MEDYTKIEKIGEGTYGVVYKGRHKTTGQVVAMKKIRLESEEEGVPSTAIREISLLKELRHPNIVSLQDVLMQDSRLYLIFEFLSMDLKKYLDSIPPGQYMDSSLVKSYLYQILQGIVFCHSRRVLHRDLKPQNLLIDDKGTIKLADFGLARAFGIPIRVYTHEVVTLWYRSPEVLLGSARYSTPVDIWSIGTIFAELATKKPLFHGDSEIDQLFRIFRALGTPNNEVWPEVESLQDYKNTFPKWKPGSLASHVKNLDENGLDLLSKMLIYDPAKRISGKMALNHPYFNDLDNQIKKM
Chain of Cyclin-dependent kinase 1/cyclin B1 (Homo sapiens) (P14635 whole entry, looked up): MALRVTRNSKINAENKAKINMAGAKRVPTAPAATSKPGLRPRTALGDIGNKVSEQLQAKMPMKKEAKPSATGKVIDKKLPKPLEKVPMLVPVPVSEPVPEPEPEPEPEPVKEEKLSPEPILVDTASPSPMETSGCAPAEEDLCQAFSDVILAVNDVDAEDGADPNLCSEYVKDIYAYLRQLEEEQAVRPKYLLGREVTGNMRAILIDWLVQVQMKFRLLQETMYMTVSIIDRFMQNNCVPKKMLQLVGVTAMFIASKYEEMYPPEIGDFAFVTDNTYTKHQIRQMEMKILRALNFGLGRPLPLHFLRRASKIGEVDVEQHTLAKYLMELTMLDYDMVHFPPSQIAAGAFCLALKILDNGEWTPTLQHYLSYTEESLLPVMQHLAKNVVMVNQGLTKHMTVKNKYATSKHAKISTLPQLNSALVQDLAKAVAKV

Take `O=C1Nc2ccc(Cl)cc2/C1=C1/Nc2ccc(Cl)cc2/C1=N/O`: the IC50 in [1] was 0.0111 µM; in the experiment on A549 it was over 20 µM; in the experiment with HT-1080, 12.2 µM; in experiment [4] it was 1.86 µM; in the experiment on K562 it was 17.2 µM; in the experiment with SNU-638, 2.57 µM. The IC50 amounted to 11.9 µM in the experiment on KB and 6.14 µM in the experiment with MCF7. In experiment [2], this compound displayed a Residual activity of 90%. For the same compound, the Selectivity ratio in [3] stood at 6.
Regarding `O=C1Nc2ccc([N+](=O)[O-])cc2/C1=C1/Nc2ccc(F)cc2/C1=N/O`, the IC50 in [1] was 0.00171 µM; in the experiment with A549, 0.57 µM; in the experiment with HT-1080 it was 0.64 µM; in experiment [4] it was 0.28 µM; with K562, 0.46 µM; in the experiment with SNU-638 it was 0.94 µM. Also, the IC50 in the experiment with KB was 0.92 µM; with MCF7, 0.91 µM. Moreover, the Residual activity in experiment [2] was 90%. Besides, the Selectivity ratio in experiment [3] amounted to 6.
Turning to `Cc1ccc2c(c1)C(=N/O)/C(=C1/C(=O)Nc3ccc(OC(F)(F)F)cc31)N2`, in experiment [2], the Residual activity is 90%. In addition, the IC50 in the experiment on A549 is over 20 µM; in the experiment on HT-1080, over 20 µM; in [4], over 20 µM; in the experiment on K562, over 20 µM; in the experiment with SNU-638, over 20 µM; in the experiment with KB it was 8.13 µM. In addition, in the experiment on MCF7, half-maximal inhibition (IC50) required 7.31 µM.
`COc1ccc2c(c1)C(=N/O)/C(=C1/C(=O)Nc3ccc([N+](=O)[O-])cc31)N2`: the IC50 in [1] is 2.95 µM; with A549, over 20 µM; with HT-1080, over 20 µM; in [4], over 20 µM; in the experiment on K562 it was over 20 µM; with SNU-638 it was over 20 µM. Further, the IC50 in the experiment with KB and in the experiment with MCF7 was over 20 µM in each case. For the same compound, the inhibition entry in experiment [2] and in experiment [5] was “inactive” throughout.
In the case of `O=C1Nc2ccc(F)cc2/C1=C1/Nc2ccc(Cl)cc2/C1=N/O`, the IC50 in experiment [1] amounted to 0.0101 µM; with A549, 18.9 µM; in the experiment with HT-1080, 3.62 µM; in experiment [4], 1.72 µM; with K562 it was 14.7 µM; in the experiment with SNU-638, 2.28 µM. Also, the IC50 amounted to 3.62 µM in the experiment on KB and 3.52 µM in the experiment on MCF7. Further, the Residual activity in experiment [2] came out at 90%. The Selectivity ratio in [3] turned out to be 6.
Turning to `O=C1Nc2ccc(F)cc2/C1=C1/Nc2ccc(O)cc2/C1=N/O`, the concentration for half-maximal inhibition (IC50) in experiment [1] worked out at 0.00225 µM; with A549, 4.09 µM; in the experiment with HT-1080, 0.68 µM; in experiment [4], 1.66 µM; in the experiment with K562, 1.42 µM; with SNU-638 it was 2.11 µM. The values for the 50% inhibitory concentration (IC50) with KB and in the experiment on MCF7 were 4.62 µM and 2.61 µM, respectively. In addition, the Residual activity in [2] worked out at 90%.
For the compound `Cc1ccc2c(c1)C(=N/O)/C(=C1/C(=O)Nc3ccc([N+](=O)[O-])cc31)N2`, the concentration for half-maximal inhibition (IC50) is 0.00868 µM in experiment [1]; over 20 µM in the experiment on A549; 3.92 µM in the experiment with HT-1080; 1.41 µM in [4]; 0.81 µM in the experiment with K562; 1.06 µM with SNU-638. The IC50 in the experiment with KB worked out at 2.11 µM; with MCF7, 1.06 µM. In addition, the Residual activity in experiment [2] stood at 90%. The Selectivity ratio in experiment [3] was found to be 7.
With `O=C1Nc2ccc(OC(F)(F)F)cc2/C1=C1/Nc2ccc(O)cc2/C1=N/O`, the IC50 in experiment [1] was 0.00832 µM; with A549, 16.9 µM; with HT-1080 it was 2.28 µM; in [4] it was 2.25 µM; with K562, 5.91 µM; in the experiment on SNU-638 it was 2.96 µM. The IC50 in the experiment with KB is 5.81 µM; in the experiment on MCF7, 4.23 µM. In experiment [2], this compound yielded a Residual activity of 90%.
As for `O=C1Nc2ccc(OC(F)(F)F)cc2/C1=C1/Nc2ccc(F)cc2/C1=N/O`, the IC50 was 0.0603 µM in experiment [1]; 19.9 µM in the experiment on A549; 3.95 µM in the experiment on HT-1080; 1.51 µM in experiment [4]; 1.53 µM in the experiment with K562; 1.89 µM with SNU-638. Besides, the figures for the IC50 in the experiment with KB and in the experiment on MCF7 were 3.81 µM and 4.12 µM, respectively. Besides, the Residual activity in experiment [2] turned out to be 90%. For the same compound, in experiment [3], the Selectivity ratio was 6.
On to `COc1ccc2c(c1)C(=N/O)/C(=C1/C(=O)Nc3ccc(OC(F)(F)F)cc31)N2`, for which the IC50 was 8.62 µM in experiment [1]; over 20 µM in the experiment on A549; over 20 µM with HT-1080; over 20 µM in [4]; over 20 µM with K562; over 20 µM in the experiment on SNU-638. The IC50 in the experiment with KB was determined as 20 µM; in the experiment with MCF7, 13.2 µM. The outcome in [2] and in experiment [5] was inactive.
As to `O=C1Nc2ccc(F)cc2/C1=C1/Nc2ccc(F)cc2/C1=N/O`, the IC50 in [1] turned out to be 0.00183 µM; with A549, 10.3 µM; with HT-1080, 8.62 µM; in experiment [4], 13.5 µM; in the experiment with K562, 15.9 µM; with SNU-638 it was 2.23 µM. For the same compound, the values for the IC50 with KB and in the experiment on MCF7 were 13.2 µM and 6.57 µM, respectively. Further, the Residual activity in experiment [2] turned out to be 90%. Also, in experiment [3], the Selectivity ratio is 6.
For `Cc1ccc2c(c1)C(=N/O)/C(=C1/C(=O)Nc3ccc(Cl)cc31)N2`, the Residual activity in [2] is 90%. Moreover, the IC50 is over 20 µM with A549; over 20 µM in the experiment with HT-1080; 18.8 µM in experiment [4]; over 20 µM in the experiment on K562; 12.7 µM in the experiment on SNU-638; 5.18 µM in the experiment with KB. The compound also showed an IC50 in the experiment on MCF7 of 8.79 µM.
In [2], `Cc1ccc2c(c1)C(=N/O)/C(=C1/C(=O)Nc3ccc(F)cc31)N2` gave a Residual activity of 90%. In addition, the IC50 in the experiment on A549 is over 20 µM; in the experiment with HT-1080, over 20 µM; in experiment [4], over 20 µM; in the experiment on K562, over 20 µM; in the experiment with SNU-638, 11.5 µM; with KB, 10.6 µM. Also, the concentration for half-maximal inhibition (IC50) in the experiment with MCF7 worked out at 10.5 µM.
As to `COc1ccc2c(c1)C(=N/O)/C(=C1/C(=O)Nc3ccc(F)cc31)N2`, the IC50 in [1] was 4.12 µM; in the experiment on A549, 6.71 µM; in the experiment with HT-1080, 4.84 µM; in experiment [4], 3.59 µM; in the experiment on K562, 5.29 µM; with SNU-638, 13.6 µM. Also, the IC50 in the experiment with KB and in the experiment with MCF7 was over 20 µM in each case. In addition, the result in [2] and in experiment [5] was inactive.
For `O=C1Nc2ccc(Cl)cc2/C1=C1/Nc2ccc(O)cc2/C1=N/O`, the concentration for half-maximal inhibition (IC50) is 0.00527 µM in experiment [1]; 16.4 µM in the experiment with A549; 2.92 µM in the experiment with HT-1080; 3.51 µM in [4]; 12.2 µM in the experiment with K562; 5.14 µM with SNU-638. In addition, the IC50 is 10.2 µM in the experiment on KB and 10.7 µM in the experiment with MCF7. In addition, the Residual activity in [2] was 90%.
`O=C1Nc2ccc(Cl)cc2/C1=C1/Nc2ccc(F)cc2/C1=N/O`: the IC50 was 0.00801 µM in [1]; over 20 µM with A549; 5.33 µM in the experiment with HT-1080; 3.31 µM in [4]; 7.14 µM in the experiment with K562; 6.32 µM with SNU-638. In addition, the IC50 amounted to 9.11 µM in the experiment on KB and 7.13 µM in the experiment with MCF7. Besides, the Residual activity in experiment [2] was 90%. The Selectivity ratio in experiment [3] was 6.

Usually IC50 stands for the concentration that inhibits the measured activity by half.
